Source: patent publication US6949574B2 (Bristol-Myers Squibb Company, priority 2002, dated 2005)
Read-outs that look alike come from different tables or passages of the source.

Molecular target: T1, human FAAH (Homo sapiens, UniProt O00519)
T1 construct: expressed in transfected cells; host or cells: H4 cells (H4-FAAH, Geneticin-selected); crude membrane homogenates
T1 sequence (O00519 1-579): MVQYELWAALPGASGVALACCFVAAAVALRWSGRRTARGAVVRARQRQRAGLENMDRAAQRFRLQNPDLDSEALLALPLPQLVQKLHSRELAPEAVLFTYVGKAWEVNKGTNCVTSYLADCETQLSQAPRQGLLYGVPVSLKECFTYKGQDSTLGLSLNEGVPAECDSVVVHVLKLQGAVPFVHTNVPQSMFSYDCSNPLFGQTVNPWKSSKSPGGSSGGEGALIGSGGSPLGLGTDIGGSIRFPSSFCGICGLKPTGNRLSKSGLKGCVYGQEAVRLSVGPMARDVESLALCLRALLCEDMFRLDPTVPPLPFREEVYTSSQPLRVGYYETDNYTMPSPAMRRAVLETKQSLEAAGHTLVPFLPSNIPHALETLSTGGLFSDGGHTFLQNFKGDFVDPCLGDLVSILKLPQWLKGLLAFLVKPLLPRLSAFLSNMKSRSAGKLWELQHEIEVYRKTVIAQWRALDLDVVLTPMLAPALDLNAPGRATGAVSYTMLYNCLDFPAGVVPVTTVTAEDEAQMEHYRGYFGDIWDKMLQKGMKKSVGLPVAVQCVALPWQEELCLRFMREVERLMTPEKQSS
Experiment: FAAH activity in membrane homogenates of H4-FAAH cells, [3H]-anandamide hydrolysis
Format: biochemical
Procedure: Homogenates of crude membranes were prepared from H4 cells that express transfected human FAAH (H4-FAAH cells). Briefly, cells were grown in DMEM supplemented with 10% FBS and Geneticin at a final concentration of 500 μg/ml (Gibco BRL, Rockville, Md.). Confluent cultures of H4-FAAH cells were rinsed twice with phosphate-buffered saline [138 mM NaCl, 4.1 mM KCl, 5.1 mM Na2PO4, 1.5 mM KH2PO4 (pH 7.5), 37° C.] and incubated for 5 to 10 minutes at 4° C. in lysis buffer [1 mM sodium bicarbonate]. Cells were transferred from plates to polypropylene tubes (16×100 mm), homogenized and centrifuged at 32,000×g for 30 minutes. Pellets were resuspended by homogenization in lysis buffer and centrifuged at 32,000×g for 30 minutes. Pellets were resuspended in lysis buffer (15-20 μg protein/ml) then stored at −80° C. until needed. On the day of an experiment, membranes were diluted to 2.67 μg protein/ml in 125 mM Tris-Cl, pH 9.0.
Activity of FAAH was measured using a modification of the method described by Omeir et al., 1995 (Life Sci 56:1999, 1995). Membrane homogenates (240 ng protein) were incubated at room temperature for one hour with 1.67 nM anandamide [ethanolamine 1-^3H] (available from American Radiolabeled Chemical Inc., St Louis, Mo.) and 10 μM anandamide (available from Sigma/RBI, St. Louis, Mo.) in the absence and presence of inhibitors. The reaction was stopped by the addition of 1 volume of a solution of 1:1 methanol and dichloroethane. The mixture was shaken and then centrifuged at 1000×g for 15 minutes to separate the aqueous and organic phases. An aliquot of the aqueous phase, containing [^3H]-ethanolamine was withdrawn and counted by scintillation spectroscopy. Data were expressed as the percentage of [^3H]-ethanolamine formed versus vehicle, after subtraction of the background radioactivity determined in the presence of 10 μM arachidonyl trifluoromethyl ketone (ATFMK), an inhibitor of FAAH. IC50 values were determined using a four-parameter logistic equation for dose-response curves.

[1] = H4-FAAH cell membranes, 10 μM anandamide, room temperature, one hour, read-out: IC50

Structure (SMILES) | IC50 [1] [nM] | IC50 [nM]
CCCOc1ccc(NC(=O)O/N=C/c2cccnc2)cc1 [Example 16, 3-Pyridinecarboxaldehyde, O-[[(4-propoxyphenyl)amino]carbonyl]oxime] | 10 to 100 | 
CCCCOc1ccc(CNC(=O)Oc2ccccc2)cc1 [Example 111, 4-(Butoxyphenylmethyl)carbamic acid, phenyl ester] | < 10 | 
O=C(Nc1ccc(OCCCc2ccccc2)cc1)O/N=C/c1ccc(F)cc1 [Example 83, 4-Fluorobenzaldehyde, O-[[[4-(3-phenylpropoxy)phenyl]amino]carbonyl]oxime] | < 10 | 
CCCCOc1ccc(CNC(=O)Oc2cccc(N(C)C)c2)cc1 [Example 118, 4-(Butoxyphenylmethyl)carbamic acid, 3-(dimethylamino)phenyl ester] | 10 to 100 | 
CCCCCCOc1ccc(NC(=O)ON=C(C)C)cc1 [Example 22, 2-Propanone, O-[[(4-hexyloxyphenyl)amino]carbonyl]oxime] | 10 to 100 | 
O=C(Nc1ccc(Oc2ccccn2)cc1)O/N=C/c1cccnc1 [Example 147, 3-Pyridinecarboxaldehyde, O-[[[4-[(2-pyridinyl)oxy]phenyl]amino]carbonyl]oxime] | 101 to 500 | 
CCCCCCCCCCOc1ccc(NC(=O)ON=C(C)C)cc1 [Example 32, 2-Propanone, O-[[(4-decyloxyphenyl)amino]carbonyl]oxime] | < 10 | 
CCCCCCCCCCCCOc1ccc(NC(=O)O/N=C/c2ccccc2)cc1 [Example 41, Benzaldehyde, O-[[(4-dodecyloxyphenyl)amino]carbonyl]oxime] | < 10 | 
CCCCCCCCCCCOc1ccc(NC(=O)O/N=C/c2ccc(F)cc2)cc1 [Example 38, 4-Fluorobenzaldehyde, O-[[(4-undecyloxyphenyl)amino]carbonyl]oxime] | < 10 | 
CCCCCCCCCCCCOc1ccc(NC(=O)O/N=C/c2cccnc2)cc1 [Example 43, 3-Pyridinecarboxaldehyde, O-[[(4-dodecyloxyphenyl)amino]carbonyl]oxime] | < 10 | 
O=C(Nc1cccc(Oc2ccccc2)c1)O/N=C/c1ccccc1 [Example 91, Benzaldehyde, O-[[(3-phenoxyphenyl)amino]carbonyl]oxime] | < 10 | 
CCCCOc1ccc(NC(=O)ON=C(C)C)cc1 [Example 60, 2-Propanone, O-[[(4-butoxyphenyl)amino]carbonyl]oxime] | 10 to 100 | 
CCCCOc1ccc(C(CC)NC(=O)Oc2ccccc2F)cc1 (centres unmarked) [Example 135, [1-(4-Butoxy-phenyl)-propyl]-carbamic acid 2-fluoro-phenyl ester] | < 10 | 
CCCCCCCOc1ccc(NC(=O)O/N=C/c2ccc(F)cc2)cc1 [Example 28, 4-Fluorobenzaldehyde, O-[[(4-heptyloxyphenyl)amino]carbonyl]oxime] | < 10 | 
CCCCCCCCCCCOc1ccc(NC(=O)Oc2ccccc2)cc1 [Example 103, 4-Undecyloxyphenylcarbamic acid, phenyl ester] |  | < 10
CCCCCCCCOc1ccc(NC(=O)O/N=C/c2ccccc2)cc1 [Example 45, Benzaldehyde, O-[[(4-octyloxyphenyl)amino]carbonyl]oxime] | < 10 | 
O=C(Nc1ccc2[nH]ccc2c1)O/N=C/c1cccnc1 [Example 141, 3-Pyridinecarboxaldehyde, O-[[(1H-indol-5-yl)amino]carbonyl]oxime] | > 500 | 
O=C(Nc1ccc(Oc2cccnc2)cc1)O/N=C/c1ccccc1 [Example 151, Benzaldehyde, O-[[[4-[(3-pyridinyl)oxy]phenyl]amino]carbonyl]oxime] | < 10 | 
CCCCCCOc1ccc(NC(=O)O/N=C/c2ccccc2)cc1 [Example 23, Benzaldehyde, O-[[(4-hexyloxyphenyl)amino]carbonyl]oxime] | < 10 | 
CCCCCCCCCOc1ccc(NC(=O)O/N=C/c2c(F)cccc2F)cc1 [Example 50, 2,6-Difluorobenzaldehyde, O-[[(4-nonyloxyphenyl)amino]carbonyl]oxime] | < 10 | 
O=C(Nc1ccc(-c2ccccc2)cc1)O/N=C/c1cccnc1 [Example 69, 3-Pyridinecarboxaldehyde, O-[[([1,1′-biphenyl]-4-yl)amino]carbonyl]oxime] | 10 to 100 | 

Structure (SMILES) | IC50 [1] [nM] | IC50 [nM]
CCCCOc1ccc(CNC(=O)ON=C(C)C)cc1 [Example 61, 2-Propanone, O-[[(4-butoxyphenylmethyl)amino]carbonyl]oxime] | > 500 | 
CCCCOc1ccc(NC(=O)Oc2ccc(Cl)cc2)cc1 [Example 100] | 10 to 100 | 
CCCCOc1ccc(CNC(=O)Oc2cccc(Cl)c2)cc1 [Example 122, 4-(Butoxyphenylmethyl)carbamic acid, 3-chlorophenyl ester] | 10 to 100 | 
CCOc1ccc(NC(=O)O/N=C/c2ccccc2)cc1 [Example 9, Benzaldehyde, O-[[(4-ethoxyphenyl)amino]carbonyl]oxime] | 10 to 100 | 
CCCCCCCCCOc1ccc(NC(=O)O/N=C/c2ccc(C(F)(F)F)cc2)cc1 [Example 53, 4-(Trifluoromethyl)benzaldehyde, O-[[(4-nonyloxyphenyl)amino]carbonyl]oxime] | < 10 | 
CCCCOc1ccc(NC(=O)ON=C(C)C)cc1OC [Example 18, 2-Propanone, O-[[(4-butoxy-3-methoxyphenyl)amino]carbonyl]oxime] | > 500 | 
CCCCOc1ccc(NC(=O)Oc2ccc(F)cc2)cc1 [Example 108, 4-Butoxyphenylcarbamic acid, 4-fluorophenyl ester] | 101 to 500 | 
CCCCCCCCCCCCOc1ccc(NC(=O)Oc2ccccc2F)cc1 [Example 106, 4-Dodecyloxyphenylcarbamic acid, 2-fluorophenyl ester] | 10 to 100 | 
CCCCCCCCOc1ccc(NC(=O)ON=C(C)C)cc1 [Example 29, 2-Propanone, O-[[(4-octyloxyphenyl)amino]carbonyl]oxime] | < 10 | 
CCCCOc1ccc(NC(=O)OC)cc1 [Example 95, 4-Butoxyphenylcarbamic acid, methyl ester] | > 500 | 
CCOc1ccc(NC(=O)O/N=C/c2ccc(F)cc2)cc1 [Example 12, 4-Fluorobenzaldehyde, O-[[(4-ethoxyphenyl)amino]carbonyl]oxime] | 10 to 100 | 
O=C(Nc1ccc(OCCCc2ccccc2)cc1)O/N=C/c1ccccc1 [Example 86, Benzaldehyde, O-[[[4-(3-phenylpropoxy)phenyl]amino]carbonyl]oxime] | < 10 | 
CCOc1ccc(NC(=O)O/N=C/c2cccnc2)cc1 [Example 15, 3-Pyridinecarboxaldehyde, O-[[(4-ethoxyphenyl)amino]carbonyl]oxime] | 101 to 500 | 
CCCCOc1cccc(NC(=O)O/N=C/c2ccc(F)cc2)c1 [Example 68, 4-Fluorobenzaldehyde, O-[[(3-butoxyphenyl)amino]carbonyl]oxime] | 10 to 100 | 
CCCCOc1cccc(NC(=O)ON=C(C)C)c1 [Example 66, 2-Propanone, O-[[(3-butoxyphenyl)amino]carbonyl]oxime] |  | > 500
O=C(Nc1ccc(OCCCc2ccccc2)cc1)O/N=C/c1cccnc1 [Example 80, 3-Pyridinecarboxaldehyde, O-[[[4-(3-phenylpropoxy)phenyl]amino]carbonyl]oxime] | < 10 | 
CCCCCCCCCCCOc1ccc(NC(=O)O/N=C/c2ccccc2)cc1 [Example 37, Benzaldehyde, O-[[(4-undecyloxyphenyl)amino]carbonyl]oxime] | < 10 | 
CCCCCCOc1ccc(NC(=O)Oc2ccccc2F)cc1 [Example 94, 4-Hexyloxyphenylcarbamic acid, 2-fluorophenyl ester] | > 500 | 
CCCCCCOc1ccc(NC(=O)Oc2ccccc2)cc1 [Example 93, 4-Hexyloxyphenylcarbamic acid, phenyl ester] | 10 to 100 | 
CCCCCCCOc1ccc(NC(=O)Oc2ccccc2F)cc1 [Example 97, 4-Heptyloxyphenylcarbamic acid, 2-fluorophenyl ester] | 10 to 100 | 
